Converted amounts (≈) assume the structure as drawn.
Assays:
Assay in all cases: in vitro antibacterial evaluation, MIC by broth dilution
Type in all cases: cell-based
Enterococcus sp. = details: broth dilution, 18 hours at 35° C.
Experimental: (§1) Methods for in vitro Antibacterial Evaluation (Table 1)
(§2) The minimum inhibitory concentration (MIC), the lowest concentration of the antibiotic which inhibits growth of the test organism, is determined by the broth dilution method using Muller-Hinton II […] (Baltimore Biological Laboratories) following the recommendations of the National Committee for Clinical Laboratory Standards [Methods for dilution antimicrobial susceptibility tests for bacteria that grow aerobically, approved standard M7-A2, National Committee for Clinical Laboratory Standards, Villanova, Pa.].
(§3) An inoculum level of 5×10^5 CFU/mL, and a range of antibiotic concentrations (64-0.06 μg/mL) is used. […] The test organisms include a spectrum of Gram-positive bacteria comprised of Staphylococcus sp., Streptococcus sp. and Enterococcus sp. These organisms include recent clinical isolates that are resistant to methicillin, penicillin and/or vancomycin.

Staphylococcus sp. = details: broth dilution, 18 hours at 35° C.; for MIC Staphylococcus aureus (GC 1131): strain GC 1131; for MIC Staphylococcus aureus (ATCC 29213): strain ATCC 29213
Experimental: as §1, §2, §3

Streptococcus sp. = details: broth dilution, 18 hours at 35° C.
Experimental: as §1, §2, §3

Escherichia coli = details: 18 hours at 35° C.
Experimental: as §2, §3

CC(C1CCCCC1)C1NC(=O)CNC(=O)C(CO)NC(=O)C(C(O)C2CNC(=N)N2C2OC(CO)C(O)C(O)C2O)NC(=O)C(C(O)C2CNC(=N)N2)NC(=O)C(Cc2ccc(OC3OC(CO)C(OC4OC5COC(c6ccccc6)OC5C(O)C4O)C(O)C3O)cc2)NC1=O (stereo not shown) [Example 201]
MIC Enterococcus avium (GC 4558) (Enterococcus sp.): 1 µg/mL (≈ 0.72 µM)
MIC Enterococcus faecalis (ATCC 29212) (Enterococcus sp.): 1 µg/mL (≈ 0.72 µM)
MIC Enterococcus faecalis (GC 2242) (Enterococcus sp.): 1 µg/mL (≈ 0.72 µM)
MIC Enterococcus faecalis (GC 2691) (Enterococcus sp.): 1 µg/mL (≈ 0.72 µM)
MIC Enterococcus faecalis (GC 3059) (Enterococcus sp.): 1 µg/mL (≈ 0.72 µM)
MIC Enterococcus faecalis (GC 4552) (Enterococcus sp.): 1 µg/mL (≈ 0.72 µM)
MIC Enterococcus faecalis (GC 4553) (Enterococcus sp.): 1 µg/mL (≈ 0.72 µM)
MIC Enterococcus faecalis (GC 4554) (Enterococcus sp.): 1 µg/mL (≈ 0.72 µM)
MIC Enterococcus faecalis (GC 6189) (Enterococcus sp.): 1 µg/mL (≈ 0.72 µM)
MIC Enterococcus faecium (GC 2243) (Enterococcus sp.): 1 µg/mL (≈ 0.72 µM)
MIC Enterococcus faecium (GC 4556) (Enterococcus sp.): 1 µg/mL (≈ 0.72 µM)
MIC Enterococcus faecium (GC 4557) (Enterococcus sp.): 0.5 µg/mL (≈ 0.36 µM)
MIC Enterococcus faecalis (ATCC 29212) (Enterococcus sp.; inoculum 5×10^5 CFU/mL, strain ATCC 29212): 1 µg/mL (≈ 0.72 µM)
MIC Enterococcus faecalis (GC 2242) (Enterococcus sp.; inoculum 5×10^5 CFU/mL, strain GC 2242): 1 µg/mL (≈ 0.72 µM)
MIC Enterococcus faecium (GC 2243) (Enterococcus sp.; inoculum 5×10^5 CFU/mL, strain GC 2243): 1 µg/mL (≈ 0.72 µM)
MIC Enterococcus faecalis (GC 2691) (Enterococcus sp.; inoculum 5×10^5 CFU/mL, strain GC 2691): 1 µg/mL (≈ 0.72 µM)
MIC Enterococcus faecalis (GC 3059) (Enterococcus sp.; inoculum 5×10^5 CFU/mL, strain GC 3059): 1 µg/mL (≈ 0.72 µM)
MIC Enterococcus faecalis (GC 4552) (Enterococcus sp.; inoculum 5×10^5 CFU/mL, strain GC 4552): 1 µg/mL (≈ 0.72 µM)
MIC Enterococcus faecalis (GC 4553) (Enterococcus sp.; inoculum 5×10^5 CFU/mL, strain GC 4553): 1 µg/mL (≈ 0.72 µM)
MIC Enterococcus faecalis (GC 4554) (Enterococcus sp.; inoculum 5×10^5 CFU/mL, strain GC 4554): 1 µg/mL (≈ 0.72 µM)
MIC Enterococcus faecium (GC 4556) (Enterococcus sp.; inoculum 5×10^5 CFU/mL, strain GC 4556): 1 µg/mL (≈ 0.72 µM)
MIC Enterococcus faecium (GC 4557) (Enterococcus sp.; inoculum 5×10^5 CFU/mL, strain GC 4557): 0.5 µg/mL (≈ 0.36 µM)
MIC Enterococcus avium (GC 4558) (Enterococcus sp.; inoculum 5×10^5 CFU/mL, strain GC 4558): 1 µg/mL (≈ 0.72 µM)
MIC Enterococcus faecalis (GC 6189) (Enterococcus sp.; inoculum 5×10^5 CFU/mL, strain GC 6189): 1 µg/mL (≈ 0.72 µM)
MIC Staphylococcus aureus (GC 1131) (Staphylococcus sp.; inoculum 5×10^5 CFU/mL): 0.25 µg/mL (≈ 0.18 µM)
MIC Staphylococcus aureus (ATCC 29213) (Staphylococcus sp.): 0.25 µg/mL (≈ 0.18 µM)
MIC Staphylococcus aureus (GC 1131) (Staphylococcus sp.): 0.25 µg/mL (≈ 0.18 µM)
MIC Staphylococcus aureus (GC 3051) (Staphylococcus sp.; strain GC 3051): 0.5 µg/mL (≈ 0.36 µM)
MIC Staphylococcus aureus (GC 3053) (Staphylococcus sp.; strain GC 3053): 0.5 µg/mL (≈ 0.36 µM)
MIC Staphylococcus aureus (GC 4541) (Staphylococcus sp.; strain GC 4541): 0.5 µg/mL (≈ 0.36 µM)
MIC Staphylococcus aureus (GC 4542) (Staphylococcus sp.; strain GC 4542): 0.25 µg/mL (≈ 0.18 µM)
MIC Staphylococcus aureus-SMITH (GC 4543) (Staphylococcus sp.; strain GC 4543): 0.5 µg/mL (≈ 0.36 µM)
MIC Staphylococcus aureus (GC 4544) (Staphylococcus sp.; strain GC 4544): 0.25 µg/mL (≈ 0.18 µM)
MIC Staphylococcus aureus (GC 4545) (Staphylococcus sp.; strain GC 4545): 0.25 µg/mL (≈ 0.18 µM)
MIC Staphylococcus haemolyticus (GC 4546) (Staphylococcus sp.; strain GC 4546): 0.25 µg/mL (≈ 0.18 µM)
MIC Coagulase Negative Staphylococcus (GC 4547) (Staphylococcus sp.; strain GC 4547): 0.25 µg/mL (≈ 0.18 µM)
MIC Coagulase Negative Staphylococcus (GC 4548) (Staphylococcus sp.; strain GC 4548): 0.25 µg/mL (≈ 0.18 µM)
MIC Coagulase Negative Staphylococcus (GC 4549) (Staphylococcus sp.; strain GC 4549): 0.25 µg/mL (≈ 0.18 µM)
MIC Coagulase Negative Staphylococcus (GC 4551) (Staphylococcus sp.; strain GC 4551): 0.25 µg/mL (≈ 0.18 µM)
MIC Streptococcus agalactiae (GC 4564) (Streptococcus sp.): <0.12 µg/mL
MIC Streptococcus pneumoniae (ATCC 6301) (Streptococcus sp.): <0.12 µg/mL
MIC Streptococcus pneumoniae (GC 1894) (Streptococcus sp.): <0.12 µg/mL
MIC Streptococcus pneumoniae (GC 4565) (Streptococcus sp.): <0.12 µg/mL
MIC Streptococcus pyogenes (GC 4563) (Streptococcus sp.): <0.12 µg/mL
MIC Streptococcus pneumoniae (ATCC 6301) (Streptococcus sp.; inoculum 5×10^5 CFU/mL, strain ATCC 6301): <0.12 µg/mL
MIC Streptococcus pneumoniae (GC 1894) (Streptococcus sp.; inoculum 5×10^5 CFU/mL, strain GC 1894): <0.12 µg/mL
MIC Streptococcus pyogenes (GC 4563) (Streptococcus sp.; inoculum 5×10^5 CFU/mL, strain GC 4563): <0.12 µg/mL
MIC Streptococcus agalactiae (GC 4564) (Streptococcus sp.; inoculum 5×10^5 CFU/mL, strain GC 4564): <0.12 µg/mL
MIC Streptococcus pneumoniae (GC 4565) (Streptococcus sp.; inoculum 5×10^5 CFU/mL, strain GC 4565): <0.12 µg/mL
MIC Escherichia coli (ATCC 25922) (Escherichia coli): 16 µg/mL (≈ 11.5 µM)
MIC Escherichia coli (GC 4559) (Escherichia coli): 16 µg/mL (≈ 11.5 µM)
MIC Escherichia coli (GC 4560) (Escherichia coli): 0.25 µg/mL (≈ 0.18 µM)

CCCCCC(=O)OCC1OC(N2C(=N)NCC2C(O)C2NC(=O)C(C(O)C3CNC(=N)N3)NC(=O)C(Cc3ccc(OC4OC(CO)C(OC5OC(CO)C(O)C(O)C5O)C(O)C4O)cc3)NC(=O)C(C(C)c3ccccc3)NC(=O)CNC(=O)C(CO)NC2=O)C(O)C(O)C1O (stereo not drawn) [Example 95, Cyclo[glycyl-β-methylphenylalanyl-O-(4-O-hexojpyranosylhexopyranosyl)tyrosyl-3-(2-iminoimidazolidin-4-yl)seryl-3-[3-(6-O-hexanoylhexopyranosyl)-2-iminoimidazolidin-4-yl]serylseryl]]
MIC Enterococcus faecalis (ATCC 29212) (Enterococcus sp.; Enterococcus faecalis (ATCC 29212)): >64 µg/mL
MIC Enterococcus faecalis (GC 4552) (Enterococcus sp.; Enterococcus faecalis (GC 4552)): >64 µg/mL
MIC Enterococcus faecalis (ATCC 29212) (Enterococcus sp.): >64 µg/mL
MIC Enterococcus faecalis (GC 2242) (Enterococcus sp.): >64 µg/mL
MIC Enterococcus faecalis (GC 4552) (Enterococcus sp.): >64 µg/mL
MIC Enterococcus faecalis (GC 2242) (Enterococcus sp.; strain GC 2242): >64 µg/mL
MIC Coagulase Negative Staphylococcus (GC 4537) (Staphylococcus sp.): >64 µg/mL
MIC Coagulase Negative Staphylococcus (GC 4538) (Staphylococcus sp.): >64 µg/mL
MIC Coagulase Negative Staphylococcus (GC 4547) (Staphylococcus sp.): >64 µg/mL
MIC Staphylococcus aureus (ATCC 29213) (Staphylococcus sp.): >64 µg/mL
MIC Staphylococcus aureus (GC 1131) (Staphylococcus sp.): >64 µg/mL
MIC Staphylococcus aureus (GC 4535) (Staphylococcus sp.; strain GC 4535): >64 µg/mL
MIC Staphylococcus aureus-SMITH (GC 4536) (Staphylococcus sp.; strain GC 4536): >64 µg/mL
MIC Coagulase Negative Staphylococcus (GC 4537) (Staphylococcus sp.; strain GC 4537): >64 µg/mL
MIC Coagulase Negative Staphylococcus (GC 4538) (Staphylococcus sp.; strain GC 4538): >64 µg/mL
MIC Coagulase Negative Staphylococcus (GC 4547) (Staphylococcus sp.; strain GC 4547): >64 µg/mL
MIC Escherichia coli (GC 4559) (Escherichia coli): >64 µg/mL
MIC Escherichia coli (GC 4560) (Escherichia coli): 8 µg/mL (≈ 5.74 µM)
